The numbers were not newly measured in US10881492B2, “Oral care compositions and regimens” (The Procter & Gamble Company, priority 2014, dated 2021), which cites them from elsewhere.

For this data set the following is noted: concentration level where the cooling effect can be clearly recognized.

`CC(C)[C@@H]1CC[C@@H](C)C[C@@H]1O` [Example 1-neomenthol, 1-neomenthol]: the cooling threshold entry is reported as “about 3,000 ppb”.

With `CC(C)[C@@H]1CC[C@@H](C)C[C@H]1O` [L-menthol], the cooling threshold result is “about 800 ppb”.

On to `CC(C)[C@@H]1CC[C@@H](C)C[C@@H]1O` [d-neomenthol], for which the cooling threshold entry is on record as “about 25,000 ppb”.
